Measurements as given in patent publication US4196205A, “3-Acetoxymethyl-7-(iminoacetamido)-cephalosporanic acid derivatives” (priority 1976, dated 1980).
Values after ≈ are worked out from the molar mass of the structure shown. Like-named read-outs stand apart in the source and are kept apart here.

How the values were obtained:
Experiment in all cases: MIC, dilution in liquid medium
Assay type in all cases: cell-based
[1] = test system: Staphylococcus aureus UC 1 128 Pen-Resistant; settings: Staphylococcus aureus, read-out: M.I.C.
Experimental: (§1) The method used was a dilution of a liquid medium where a series of tubes received the same quantity of a sterile nutritive media and increasing doses of the test compounds were placed therein. Then each tube was seeded with a bacterial strain and was incubated for 24 to 48 hours at 37° C. in an oven. The increasing inhibition was determined by transillumination to determine the minimum inhibiting concentration (MIC in […]) and the results are reported in the following Tables.

[2] = test system: Proteus mirabilis (indol-) A 235; settings: Proteus mirabilis
Experimental: as §1

[3] = test system: Staphylococcus aureus ATCC 5 638 Pen-Sensible = UC 1061; settings: UC 1061 Pen-Sensible
Experimental: as §1

[4] = test system: Bacillus subtilis ATCC 6 633; settings: Bacillus subtilis
Experimental: as §1

Enterobacter cloacae 681 = test system: Enterobacter cloacae 681
Experimental: as §1

[5] = test system: Escherichia Coli Resistant Gentamicine, Tobramycine R 55 123 D; settings: Escherichia coli
Experimental: as §1

[6] = test system: Escherichia Coli Resistant Tetracycline ATCC 11 303 = UC 1261; settings: Escherichia coli
Experimental: as §1

[7] = test system: Streptococcus pyogenes A 561; settings: Streptococcus pyogenes, read-out: M.I.C.
Experimental: as §1

[8] = test system: Klebsiella pneumoniae Exp. 52 145; settings: Klebsiella pneumoniae
Experimental: as §1

[9] = test system: Salmonella typhimurium 420; settings: Salmonella enterica, TYPHIMURIUM
Experimental: as §1

[10] = test system: Escherichia Coli Exp. TO26 B6; settings: Escherichia coli
Experimental: as §1

[11] = test system: Staphylococcus aureus exp. n° 54 146; settings: Staphylococcus aureus
Experimental: as §1

[12] = test system: Klebsiella pneumoniae 2 536 Resistant Gentamicine; settings: Klebsiella pneumoniae
Experimental: as §1

[13] = test system: Escherichia Coli Sensible Tetracycline ATCC 9 637 = 1020; settings: Escherichia coli, ST UC 1020
Experimental: as §1

What does the source list for `CC(=O)OCC1=C(C(=O)O)N2C(=O)[C@@H](NC(=O)/C(=N/O)c3csc(N)n3)[C@H]2SC1` [3-acetoxymethyl-7-[2-(2amino-4-thiazolyl)-2-hydroxyiminoacetamido]-ceph-3-eme-4-carboxylic acid]?
MIC ([1]; UC1, 24 h): 10 µg/mL (≈ 22.7 µM); MIC ([1]; UC1, 48 h): 10 µg/mL (≈ 22.7 µM); MIC ([2]; 24 h): 2 µg/mL (≈ 4.53 µM); MIC ([2]; 48 h): 2 µg/mL (≈ 4.53 µM); MIC ([3]; 24 h): 5 µg/mL (≈ 11.3 µM); MIC ([3]; 48 h): 5 µg/mL (≈ 11.3 µM); MIC ([4]; ATCC6, 24 h, 24 H): 2 µg/mL (≈ 4.53 µM); MIC ([4]; ATCC6, 48 h, 48 H): 5 µg/mL (≈ 11.3 µM); MIC (Enterobacter cloacae 681; Enterobacter cloacae, 681, 24 h): 40 µg/mL (≈ 90.6 µM); MIC (Enterobacter cloacae 681; Enterobacter cloacae, 681, 48 h): 40 µg/mL (≈ 90.6 µM); MIC ([5]; 24 h): 5 µg/mL (≈ 11.3 µM); MIC ([5]; 48 h, RG R55 123D, read-out: M.I.C.): 10 µg/mL (≈ 22.7 µM); MIC ([6]; 24 h): 1 µg/mL (≈ 2.27 µM); MIC ([6]; 48 h): 1 µg/mL (≈ 2.27 µM); MIC ([7]; A561, 24 h, 24 H): 0.5 µg/mL (≈ 1.13 µM); MIC ([7]; A561, 48 h, 48 H): 0.5 µg/mL (≈ 1.13 µM); MIC ([8]; EXP.52145, 24 h, 24 H, read-out: M.I.C.): 0.6 µg/mL (≈ 1.36 µM); MIC ([8]; EXP.52145, 48 h, 48 H): 0.6 µg/mL (≈ 1.36 µM); MIC ([9]; 24 h): 2 µg/mL (≈ 4.53 µM); MIC ([9]; 48 h): 2 µg/mL (≈ 4.53 µM); MIC ([10]; 24 h): 2 µg/mL (≈ 4.53 µM); MIC ([10]; 48 h): 2 µg/mL (≈ 4.53 µM); MIC ([11]; 24 h): 5 µg/mL (≈ 11.3 µM); MIC ([11]; 48 h, read-out: M.I.C.): 10 µg/mL (≈ 22.7 µM); MIC ([12]; 24 h): 20 µg/mL (≈ 45.3 µM); MIC ([12]; 48 h): 40 µg/mL (≈ 90.6 µM); MIC ([13]; ATCC 9 / UC1020, 24 h, 24 H): 3 µg/mL (≈ 6.8 µM); MIC ([13]; ATCC 9 / UC1020, 48 h, 48 H): 3 µg/mL (≈ 6.8 µM)
